Experimental data taken from ChEMBL document CHEMBL3885861, “Open TG-GATES”.

Organism: Rattus norvegicus
Assay: Open TG-GATES - Regimen: Single
Format: toxicity, organism-based, Sprague-Dawley
Set-up: regimen Single, gender Male, age 6 weeks
Details: in vivo, iv, route intravenous injection; for TBIL / TC / TG / TP / gamma-GTP / A/G / ALP / ALT / AST / BUN / CRE / Ca / Cl / DBIL / GLC / IP / K / LDH / Na / PL / RALB: tissue Plasma; for APTT / Bas / Eos / Fbg / Hb / Ht / Lym / MCH / MCHC / MCV / Mono / Neu / PT / Plat / RBC / Ret / WBC: tissue Blood; for KIDNEY_L / KIDNEY_R / KIDNEY_TOTAL: tissue Kidney; for LIVER: tissue Liver
[1] = 0 mg/kg, 24 h, dose level Control

C[C@@H]1C[C@@H]([C@H](O)CC2CC(=O)NC(=O)C2)C(=O)[C@@H](C)C1 [CYCLOHEXIMIDE]
TBIL [1]: 0.018 mg/dL | TC [1]: 75 mg/dL | TG [1]: 83.2 mg/dL | TP [1]: 5.6 g/dL | gamma-GTP [1]: 1.8 IU/L | TERMINAL_BW (1 mg/kg, 3 h, dose level Low): 216.3 g | APTT (1 mg/kg, 3 h, dose level Low): 20.1 s | Bas (1 mg/kg, 3 h, dose level Low): 0% | Eos (1 mg/kg, 3 h, dose level Low): 0.6% | Fbg (1 mg/kg, 3 h, dose level Low): 275.2 mg/dL | Hb (1 mg/kg, 3 h, dose level Low): 13.1 g/dL | Ht (1 mg/kg, 3 h, dose level Low): 38.5% | Lym (1 mg/kg, 3 h, dose level Low): 73.2% | MCH (1 mg/kg, 3 h, dose level Low): 21.7 pg | MCHC (1 mg/kg, 3 h, dose level Low): 34% | MCV (1 mg/kg, 3 h, dose level Low): 63.7 fL | Mono (1 mg/kg, 3 h, dose level Low): 2.4% | Neu (1 mg/kg, 3 h, dose level Low): 22.2% | PT (1 mg/kg, 3 h, dose level Low): 17.6 s | Plat (1 mg/kg, 3 h, dose level Low): 121.9 x10_4/uL | RBC (1 mg/kg, 3 h, dose level Low): 605.6 x10_4/ul | Ret (1 mg/kg, 3 h, dose level Low): 8.4% | WBC (1 mg/kg, 3 h, dose level Low): 174.9 x10_2/uL | KIDNEY_L (1 mg/kg, 3 h, dose level Low): 0.9 g | KIDNEY_R (1 mg/kg, 3 h, dose level Low): 0.9 g | KIDNEY_TOTAL (1 mg/kg, 3 h, dose level Low): 1.9 g | LIVER (1 mg/kg, 3 h, dose level Low): 9 g | A/G (1 mg/kg, 3 h, dose level Low): 1.4 | ALP (1 mg/kg, 3 h, dose level Low): 1054.4 IU/L | ALT (1 mg/kg, 3 h, dose level Low): 46 IU/L | AST (1 mg/kg, 3 h, dose level Low): 86 IU/L | BUN (1 mg/kg, 3 h, dose level Low): 23.6 mg/dL | CRE (1 mg/kg, 3 h, dose level Low): 0.1 mg/dL | Ca (1 mg/kg, 3 h, dose level Low): 9.6 mg/dL | Cl (1 mg/kg, 3 h, dose level Low): 107.4 meq/L | DBIL (1 mg/kg, 3 h, dose level Low): 0.002 mg/dL | GLC (1 mg/kg, 3 h, dose level Low): 145.6 mg/dL | IP (1 mg/kg, 3 h, dose level Low): 9.1 mg/dL | K (1 mg/kg, 3 h, dose level Low): 4.3 meq/L | LDH (1 mg/kg, 3 h, dose level Low): 174 IU/L | Na (1 mg/kg, 3 h, dose level Low): 142.2 meq/L | PL (1 mg/kg, 3 h, dose level Low): 78.8 mg/dL | RALB (1 mg/kg, 3 h, dose level Low): 2.8 g/dL | TBIL (1 mg/kg, 3 h, dose level Low): 0.016 mg/dL | TC (1 mg/kg, 3 h, dose level Low): 55.2 mg/dL | TG (1 mg/kg, 3 h, dose level Low): 61.6 mg/dL | TP (1 mg/kg, 3 h, dose level Low): 4.9 g/dL | gamma-GTP (1 mg/kg, 3 h, dose level Low): 1.6 IU/L | TERMINAL_BW (1 mg/kg, 6 h, dose level Low): 217.9 g | APTT (1 mg/kg, 6 h, dose level Low): 25.1 s | Bas (1 mg/kg, 6 h, dose level Low): 0% | Eos (1 mg/kg, 6 h, dose level Low): 1% | Fbg (1 mg/kg, 6 h, dose level Low): 276 mg/dL | Hb (1 mg/kg, 6 h, dose level Low): 13.2 g/dL | Ht (1 mg/kg, 6 h, dose level Low): 39.6% | Lym (1 mg/kg, 6 h, dose level Low): 65.2% | MCH (1 mg/kg, 6 h, dose level Low): 21.2 pg | MCHC (1 mg/kg, 6 h, dose level Low): 33.4% | MCV (1 mg/kg, 6 h, dose level Low): 63.4 fL | Mono (1 mg/kg, 6 h, dose level Low): 2.8% | Neu (1 mg/kg, 6 h, dose level Low): 30% | PT (1 mg/kg, 6 h, dose level Low): 19.7 s | Plat (1 mg/kg, 6 h, dose level Low): 107.5 x10_4/uL | RBC (1 mg/kg, 6 h, dose level Low): 625.2 x10_4/ul | Ret (1 mg/kg, 6 h, dose level Low): 7.7% | WBC (1 mg/kg, 6 h, dose level Low): 190 x10_2/uL | KIDNEY_L (1 mg/kg, 6 h, dose level Low): 0.9 g | KIDNEY_R (1 mg/kg, 6 h, dose level Low): 1 g | KIDNEY_TOTAL (1 mg/kg, 6 h, dose level Low): 1.9 g | LIVER (1 mg/kg, 6 h, dose level Low): 8.6 g | A/G (1 mg/kg, 6 h, dose level Low): 1.5 | ALP (1 mg/kg, 6 h, dose level Low): 1085.8 IU/L | ALT (1 mg/kg, 6 h, dose level Low): 45 IU/L | AST (1 mg/kg, 6 h, dose level Low): 82.6 IU/L | BUN (1 mg/kg, 6 h, dose level Low): 18.2 mg/dL | CRE (1 mg/kg, 6 h, dose level Low): 0.1 mg/dL | Ca (1 mg/kg, 6 h, dose level Low): 8.6 mg/dL | Cl (1 mg/kg, 6 h, dose level Low): 105.4 meq/L | DBIL (1 mg/kg, 6 h, dose level Low): 0.004 mg/dL | GLC (1 mg/kg, 6 h, dose level Low): 146.2 mg/dL | IP (1 mg/kg, 6 h, dose level Low): 9.4 mg/dL | K (1 mg/kg, 6 h, dose level Low): 3.6 meq/L | LDH (1 mg/kg, 6 h, dose level Low): 164.8 IU/L | Na (1 mg/kg, 6 h, dose level Low): 140.8 meq/L | PL (1 mg/kg, 6 h, dose level Low): 74 mg/dL | RALB (1 mg/kg, 6 h, dose level Low): 3 g/dL | TBIL (1 mg/kg, 6 h, dose level Low): 0.01 mg/dL | TC (1 mg/kg, 6 h, dose level Low): 42.8 mg/dL | TG (1 mg/kg, 6 h, dose level Low): 83.8 mg/dL | TP (1 mg/kg, 6 h, dose level Low): 5 g/dL | gamma-GTP (1 mg/kg, 6 h, dose level Low): 1.4 IU/L | TERMINAL_BW (1 mg/kg, 9 h, dose level Low): 216 g | APTT (1 mg/kg, 9 h, dose level Low): 26 s | Bas (1 mg/kg, 9 h, dose level Low): 0% | Eos (1 mg/kg, 9 h, dose level Low): 0% | Fbg (1 mg/kg, 9 h, dose level Low): 276.6 mg/dL | Hb (1 mg/kg, 9 h, dose level Low): 13.8 g/dL | Ht (1 mg/kg, 9 h, dose level Low): 41.2% | Lym (1 mg/kg, 9 h, dose level Low): 70.2% | MCH (1 mg/kg, 9 h, dose level Low): 21.1 pg | MCHC (1 mg/kg, 9 h, dose level Low): 33.4% | MCV (1 mg/kg, 9 h, dose level Low): 63.1 fL | Mono (1 mg/kg, 9 h, dose level Low): 1.8% | Neu (1 mg/kg, 9 h, dose level Low): 26.8% | PT (1 mg/kg, 9 h, dose level Low): 20.4 s | Plat (1 mg/kg, 9 h, dose level Low): 122.9 x10_4/uL | RBC (1 mg/kg, 9 h, dose level Low): 653.8 x10_4/ul | Ret (1 mg/kg, 9 h, dose level Low): 7% | WBC (1 mg/kg, 9 h, dose level Low): 187.2 x10_2/uL | KIDNEY_L (1 mg/kg, 9 h, dose level Low): 0.9 g | KIDNEY_R (1 mg/kg, 9 h, dose level Low): 0.9 g | KIDNEY_TOTAL (1 mg/kg, 9 h, dose level Low): 1.9 g | LIVER (1 mg/kg, 9 h, dose level Low): 8.9 g | A/G (1 mg/kg, 9 h, dose level Low): 1.4 | ALP (1 mg/kg, 9 h, dose level Low): 1037.4 IU/L | ALT (1 mg/kg, 9 h, dose level Low): 39.6 IU/L | AST (1 mg/kg, 9 h, dose level Low): 78.2 IU/L | BUN (1 mg/kg, 9 h, dose level Low): 16 mg/dL | CRE (1 mg/kg, 9 h, dose level Low): 0.1 mg/dL | Ca (1 mg/kg, 9 h, dose level Low): 9.5 mg/dL | Cl (1 mg/kg, 9 h, dose level Low): 106.2 meq/L | DBIL (1 mg/kg, 9 h, dose level Low): 0.008 mg/dL | GLC (1 mg/kg, 9 h, dose level Low): 162.6 mg/dL | IP (1 mg/kg, 9 h, dose level Low): 8.9 mg/dL | K (1 mg/kg, 9 h, dose level Low): 3.9 meq/L | LDH (1 mg/kg, 9 h, dose level Low): 205 IU/L | Na (1 mg/kg, 9 h, dose level Low): 140.4 meq/L | PL (1 mg/kg, 9 h, dose level Low): 90 mg/dL | RALB (1 mg/kg, 9 h, dose level Low): 2.8 g/dL | TBIL (1 mg/kg, 9 h, dose level Low): 0.022 mg/dL | TC (1 mg/kg, 9 h, dose level Low): 56.2 mg/dL | TG (1 mg/kg, 9 h, dose level Low): 38.4 mg/dL | TP (1 mg/kg, 9 h, dose level Low): 4.8 g/dL | gamma-GTP (1 mg/kg, 9 h, dose level Low): 1 IU/L | TERMINAL_BW (1 mg/kg, 24 h, dose level Low): 227.7 g | APTT (1 mg/kg, 24 h, dose level Low): 23.9 s | Bas (1 mg/kg, 24 h, dose level Low): 0% | Eos (1 mg/kg, 24 h, dose level Low): 0.2% | Fbg (1 mg/kg, 24 h, dose level Low): 334.6 mg/dL | Hb (1 mg/kg, 24 h, dose level Low): 13.2 g/dL | Ht (1 mg/kg, 24 h, dose level Low): 39.8% | Lym (1 mg/kg, 24 h, dose level Low): 85.4% | MCH (1 mg/kg, 24 h, dose level Low): 20.5 pg | MCHC (1 mg/kg, 24 h, dose level Low): 33.1% | MCV (1 mg/kg, 24 h, dose level Low): 61.8 fL | Mono (1 mg/kg, 24 h, dose level Low): 2% | Neu (1 mg/kg, 24 h, dose level Low): 10.6% | PT (1 mg/kg, 24 h, dose level Low): 16.8 s | Plat (1 mg/kg, 24 h, dose level Low): 115.4 x10_4/uL | RBC (1 mg/kg, 24 h, dose level Low): 643.4 x10_4/ul | Ret (1 mg/kg, 24 h, dose level Low): 6% | WBC (1 mg/kg, 24 h, dose level Low): 148.3 x10_2/uL | KIDNEY_L (1 mg/kg, 24 h, dose level Low): 1 g | KIDNEY_R (1 mg/kg, 24 h, dose level Low): 1 g | KIDNEY_TOTAL (1 mg/kg, 24 h, dose level Low): 2 g | LIVER (1 mg/kg, 24 h, dose level Low): 10.9 g | A/G (1 mg/kg, 24 h, dose level Low): 1.3 | ALP (1 mg/kg, 24 h, dose level Low): 1100.2 IU/L | ALT (1 mg/kg, 24 h, dose level Low): 31.2 IU/L | AST (1 mg/kg, 24 h, dose level Low): 53.4 IU/L | BUN (1 mg/kg, 24 h, dose level Low): 12.2 mg/dL | CRE (1 mg/kg, 24 h, dose level Low): 0.2 mg/dL | Ca (1 mg/kg, 24 h, dose level Low): 10.2 mg/dL | Cl (1 mg/kg, 24 h, dose level Low): 107.6 meq/L | DBIL (1 mg/kg, 24 h, dose level Low): 0.006 mg/dL | GLC (1 mg/kg, 24 h, dose level Low): 197.2 mg/dL | IP (1 mg/kg, 24 h, dose level Low): 6.6 mg/dL
